This passage reports IC50 results from US20240294531A1, “COVALENT HETEROCYCLES AND USES THEREOF” (Kumquat Biosciences Inc., priority 2022, published 2024).

The IC50 is the concentration at which inhibition is half-maximal.

The target in assay [1] is BTK wildtype protein (Homo sapiens (Human), UniProt Q06187). Description: BTK wildtype HTRF displacement assay. The assay is classed as binding. Particulars: 1-hour incubation; read-out: BTK (wt) IC50. Here is the method: (§1) The ability of a compound to bind BTK wildtype or BTK C481S proteins was measured using an HTRF displacement assay. The assay measures the ability of a compound to displace a tracer ligand bound to the active site of BTK wildtype or BTK C481 S proteins.
BTK wildtype protein, sequence (Q06187 2-659): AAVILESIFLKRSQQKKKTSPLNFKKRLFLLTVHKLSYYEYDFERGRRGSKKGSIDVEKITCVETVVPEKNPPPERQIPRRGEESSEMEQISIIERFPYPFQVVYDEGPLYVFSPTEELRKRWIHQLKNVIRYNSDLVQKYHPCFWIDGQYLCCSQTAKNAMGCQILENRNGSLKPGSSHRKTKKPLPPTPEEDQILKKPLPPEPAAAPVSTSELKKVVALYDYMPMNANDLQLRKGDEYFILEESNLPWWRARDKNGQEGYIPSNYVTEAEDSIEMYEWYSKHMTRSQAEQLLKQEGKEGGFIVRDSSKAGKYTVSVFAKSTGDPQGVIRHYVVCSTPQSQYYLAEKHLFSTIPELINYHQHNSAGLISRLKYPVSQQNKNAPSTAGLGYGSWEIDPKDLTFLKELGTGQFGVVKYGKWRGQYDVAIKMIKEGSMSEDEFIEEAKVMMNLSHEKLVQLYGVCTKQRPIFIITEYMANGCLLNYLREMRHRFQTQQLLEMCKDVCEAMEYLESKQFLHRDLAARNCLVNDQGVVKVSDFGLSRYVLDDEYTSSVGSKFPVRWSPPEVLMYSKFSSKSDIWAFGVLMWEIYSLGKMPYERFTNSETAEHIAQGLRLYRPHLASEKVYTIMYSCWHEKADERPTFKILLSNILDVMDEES
(§2) Test compounds were prepared as 10 mM stock solutions in DMSO (Fisher cat #BP231-100). Compounds to be assayed were dispensed using an Echo 650 acoustic dispenser (Beckman Coulter) on a 384 well plate in 6 doses applying four-fold dilutions from the highest concentration of 5 μM. N-terminal GST-tagged recombinant full-length BTK wildtype protein and BTK C481 S protein 2-659 were purchased from Carna Biosciences, Inc (Kobe, Japan). BTK wildtype or BTK C481S protein was separately incubated with compound in assay buffer containing kinase tracer 239 (Thermo Fisher) and Mab anti GST-Th (PerkinElmer). After a 1-hour incubation at room temperature, the HTRF signal was measured using SPARK plate reader (Tecan) using the TR fluorescence mode. The HTRF ratio is calculated for DMSO, no protein control and compound samples using the following equation: HTRF ratio=Emmision665/Emmision620×10^4. The signal for the no protein control samples was used to subtract background noise from the DMSO and compound samples. Background subtracted HTRF ratios are used to calculate the percent inhibition, where DMSO controls are set to 0 percent inhibition. The percent inhibition is plotted as a function of compound concentration and IC50 values were calculated from a four-parameter logistic fit in Prism v9.4 (GraphPad), where the bottom and top are constrained to 0 and 100, respectively.
In general terms: Time-resolved FRET reads energy transfer from a long-lived donor to a nearby acceptor.

Assay [2] has as its target BTK C481S protein (Homo sapiens (Human), UniProt Q06187, C481S). Nature of the assay: BTK C481S HTRF displacement assay. The assay is classed as binding. Particulars: 1-hour incubation. The procedure:
as §1, §2
The same assay was used to measure the activity of selected compounds of the formula TBM-L-hydrogen. Using the IC50 value observed for a given reversible test compound, the KI of the test compound can be assessed using the formula KI=IC50/(1+([Tracer]/Kd)), wherein the tracer concentration in the assay [Tracer] is 50 nM and the tracer Kd for BTK C481S is 54 nM.

BTK C481S protein, sequence (Q06187 2-659 C481S): as the sequence (Q06187 2-659) above, with C480S counted along it

For `COc1ccc(F)cc1C(=O)NCc1ccc(-c2nn(CC3CCCCC3N(C)C(=O)n3cncn3)c3ncnc(N)c23)cc1` (centres unmarked) [Compound 126, N-(2-((4-amino-3-(4-((5-fluoro-2-methoxybenzamido)methyl)phenyl)-1H-pyrazolo[3,4-d]pyrimidin-1-yl)methyl)cyclohexyl)-N-methyl-1H-1,2,4-triazole-1-carboxamide], the IC50 in assay [1] and in assay [2] was not above 1000 nM throughout.
For `COc1ccc(F)cc1C(=O)NCc1ccc(-c2nn(C(CC3CC3)CN(C)C(=O)n3cncn3)c3ncnc(N)c23)cc1` (centres unmarked) [Compound 127, N-(4-(4-amino-3-(4-((5-fluoro-2-methoxybenzamido)methyl)phenyl)-1H-pyrazolo[3,4-d]pyrimidin-1-yl)-3-cyclopropylpropyl)-N-methyl-1H-1,2,4-triazole-1-carboxamide], the IC50 in assay [1] and in assay [2] was more than 1000 nM throughout.
Consider `Cc1[nH]c2c(C(N)=O)cc(F)c(N3CCC(N(C)C(=O)n4cncn4)C3)c2c1C` (centres unmarked) [Compound 128, 5-fluoro-2,3-dimethyl-4-(3-(N-methyl-1H-1,2,4-triazole-1-carboxamido)pyrrolidin-1-yl)-1H-indole-7-carboxamide], for which the half-maximal inhibitory concentration (IC50) in assay [1] and in assay [2] was not above 1000 nM throughout.
Take `COc1ccc(F)cc1C(=O)NCc1ccc(-c2nn(C(C)CC3CCCCN3C(=O)n3cncn3)c3ncnc(N)c23)cc1` (centres unmarked) [Compound 129, N-(4-(1-(1-(1-(1H-1,2,4-triazole-1-carbonyl)piperidin-2-yl)propan-2-yl)-4-amino-1H-pyrazolo[3,4-d]pyrimidin-3-yl)benzyl)-5-fluoro-2-methoxybenzamide]: the IC50 in assay [1] and in assay [2] was more than 1000 nM throughout.
As for `COc1ccc(F)cc1C(=O)NCc1ccc(-c2nn(C[C@@H]3CCCC[C@H]3CN(C)C(=O)n3cncn3)c3ncnc(N)c23)cc1` [Compound 130, N-(((1R,2R)-2-((4-amino-3-(4-((5-fluoro-2-methoxybenzamido)methyl)phenyl)-1H-pyrazolo [3,4-d]pyrimidin-1-yl)methyl)cyclohexyl)methyl)-N-methyl-1H-1,2,4-triazole-1-carboxamide], the IC50 in assay [1] and in assay [2] was not above 1000 nM in each case.
Turning to `CN(C(=O)n1cncn1)C1CCC2C(CNc3c(C(N)=O)c(-c4ccc(Oc5ccccc5)cc4)nn32)C1` (centres unmarked) [Compound 131, 7-(N-methyl-1H-1,2,4-triazole-1-carboxamido)-2-(4-phenoxyphenyl)-4,5,5a,6,7,8,9,9a-octahydropyrazolo [1,5-a]quinazoline-3-carboxamide], the IC50 in assay [1] and in assay [2] was more than 1000 nM each time.
As to `COc1ccc(F)cc1C(=O)NCc1ccc(-c2nn(C[C@H](C3CC3)N(C)C(=O)n3cncn3)c3ncnc(N)c23)cc1` [Compound 132, (S)-N-(2-(4-amino-3-(4-((5-fluoro-2-methoxybenzamido)methyl)phenyl)-1H-pyrazolo[3,4-d]pyrimidin-1-yl)-1-cyclopropylethyl)-N-methyl-1H-1,2,4-triazole-1-carboxamide], the IC50 in assay [1] and in assay [2] was more than 1000 nM throughout.
On to `COc1ccc(F)cc1C(=O)NCc1ccc(-c2nn(-c3ccc(CN(C)C(=O)n4cncn4)cc3)c3ncnc(N)c23)cc1` [Compound 138, N-(4-(4-amino-3-(4-((5-fluoro-2-methoxybenzamido)methyl)phenyl)-1H-pyrazolo[3,4-d]pyrimidin-1-yl)benzyl)-N-methyl-1H-1,2,4-triazole-1-carboxamide], for which the 50% inhibitory concentration (IC50) in assay [1] and in assay [2] was not above 1000 nM each time.
`COc1ccc(F)cc1C(=O)NCc1ccc(-c2nn(C(CC3CCC3)CN(C)C(=O)n3cncn3)c3ncnc(N)c23)cc1` (centres unmarked) [Compound 139, N-(2-(4-amino-3-(4-((5-fluoro-2-methoxybenzamido)methyl)phenyl)-1H-pyrazolo[3,4-d]pyrimidin-1-yl)-3-cyclobutylpropyl)-N-methyl-1H-1,2,4-triazole-1-carboxamide]: the IC50 in assay [1] and in assay [2] was more than 1000 nM in each case.
Turning to `COc1ccc(F)cc1C(=O)NCc1ccc(-c2nn(Cc3ccccc3N(C)C(=O)n3cncn3)c3ncnc(N)c23)cc1` [Compound 141, N-(2-((4-amino-3-(4-((5-fluoro-2-methoxybenzamido)methyl)phenyl)-1H-pyrazolo[3,4-d]pyrimidin-1-yl)methyl)phenyl)-N-methyl-1H-1,2,4-triazole-1-carboxamide], the IC50 is not above 1000 nM in assay [1] and more than 1000 nM in assay [2].
In the same order, the values of `Cc1[nH]c2c(C(N)=O)cc(F)c(N3CCC4(CC3)CCN4C(=O)n3cncn3)c2c1C` [Compound 142, 4-(1-(1H-1,2,4-triazole-1-carbonyl)-1,7-diazaspiro[3.5]nonan-7-yl)-5-fluoro-2,3-dimethyl-1H-indole-7-carboxamide] are not above 1000 nM and not above 1000 nM.
For `COc1ccc(F)cc1C(=O)NCc1ccc(-c2nn(-c3ccccc3CN(C)C(=O)n3cncn3)c3ncnc(N)c23)cc1` [Compound 143, N-(2-(4-amino-3-(4-((5-fluoro-2-methoxybenzamido)methyl)phenyl)-1H-pyrazolo[3,4-d]pyrimidin-1-yl)benzyl)-N-methyl-1H-1,2,4-triazole-1-carboxamide], in that order: more than 1000 nM and more than 1000 nM.
For `CC1CC(n2nc(-c3ccc(Oc4ccccc4)cc3)c3c(N)ncnc32)CCN1C(=O)n1cncn1` (centres unmarked) [Compound 144, (4-(4-amino-3-(4-phenoxyphenyl)-1H-pyrazolo[3,4-d]pyrimidin-1-yl)-2-methylpiperidin-1-yl)(1H-1,2,4-triazol-1-yl)methanone], in that order: not above 1000 nM and not above 1000 nM.
Consider `COc1ccc(F)cc1C(=O)NCc1ccc(-c2nn(CC3CCN3C(=O)n3cncn3)c(N)c2C(N)=O)cc1` (centres unmarked) [Compound 145, 1-((1-(1H-1,2,4-triazole-1-carbonyl)azetidin-2-yl)methyl)-5-amino-3-(4-((5-fluoro-2-methoxybenzamido)methyl)phenyl)-1H-pyrazole-4-carboxamide], for which the IC50 in assay [1] and in assay [2] was not above 1000 nM each time.
With `COc1ccc(F)cc1C(=O)NCc1ccc(-c2nn(CCC3CCCCN3C(=O)n3cncn3)c3ncnc(N)c23)cc1` (centres unmarked) [Compound 146], the IC50 in assay [1] and in assay [2] was not above 1000 nM each time.
With `CC1(C)CC(n2nc(-c3ccc(Oc4ccccc4)cc3)c3c(N)ncnc32)CCN1C(=O)n1cncn1` (centres unmarked) [Compound 148, (4-(4-amino-3-(4-phenoxyphenyl)-1H-pyrazolo[3,4-d]pyrimidin-1-yl)-2,2-dimethylpiperidin-1-yl)(1H-1,2,4-triazol-1-yl)methanone], the IC50 in assay [1] and in assay [2] was not above 1000 nM each time.
Turning to `CN(CC1CNc2c(C(N)=O)c(-c3ccc(Oc4ccccc4)cc3)nn2C1)C(=O)n1cncn1` (centres unmarked) [Compound 149, 6-((N-methyl-1H-1,2,4-triazole-1-carboxamido)methyl)-2-(4-phenoxyphenyl)-4,5,6,7-tetrahydropyrazolo[1,5-a] pyrimidine-3-carboxamide], the IC50 in assay [1] and in assay [2] was more than 1000 nM each time.
For `COC[C@H](C1CCNc2c(C(N)=O)c(-c3ccc(Oc4ccccc4)cc3)nn21)N(C)C(=O)n1cncn1` (stereo partly drawn) [Compound 156, 7-((S)-2-methoxy-1-(N-methyl-1H-1,2,4-triazole-1-carboxamido)ethyl)-2-(4-phenoxyphenyl)-4,5,6,7-tetrahydropyrazolo[1,5-a] pyrimidine-3-carboxamide], the IC50 in assay [1] and in assay [2] was more than 1000 nM in each case.
As to `COc1ccc(C)cc1C(=O)NCc1ccc(-c2nn(CC3CCCCN3C(=O)n3cnnn3)c3ncnc(N)c23)cc1` (centres unmarked) [Compound 158, N-(4-(1-((1-(1H-tetrazole-1-carbonyl)piperidin-2-yl)methyl)-4-amino-1H-pyrazolo[3,4-d]pyrimidin-3-yl)benzyl)-2-methoxy-5-methylbenzamide], the IC50 in assay [1] was not above 1000 nM; in assay [2], more than 1000 nM.
For `NC(=O)c1c(-c2ccc(Oc3ccccc3)cc2)nn(C2CCCCN(C(=O)n3cncn3)C2)c1N` (centres unmarked) [Compound 159, 1-(1-(1H-1,2,4-triazole-1-carbonyl)azepan-3-yl)-5-amino-3-(4-phenoxyphenyl)-1H-pyrazole-4-carboxamide], in that order: not above 1000 nM and not above 1000 nM.
As for `COc1ccc(F)cc1C(=O)NCc1ccc(-c2nn(C(CCN(C)C(=O)n3cncn3)C3CC3)c3ncnc(N)c23)cc1` (centres unmarked) [Compound 161], the IC50 was not above 1000 nM in assay [1] and more than 1000 nM in assay [2].
In the same order, the values of `NC(=O)c1c(-c2ccc(Oc3ccccc3)cc2)nn(C2CCCN(C(=O)n3cncn3)C2)c1N` (centres unmarked) [Compound 163, 1-(1-(1H-1,2,4-triazole-1-carbonyl)piperidin-3-yl)-5-amino-3-(4-phenoxyphenyl)-1H-pyrazole-4-carboxamide] are not above 1000 nM and not above 1000 nM.
